Key:
[1] = tested on: Smn protein in SMA patient fibroblast cells (GM03813); assay: Smn protein assay in cultured cells (SMN HTRF); format: cell-based, human; details: SMA patient fibroblast cells, 48 hours; for EC1.5x for Smn protein expression: 7-point concentration curve, SMN HTRF, concentration producing 1.5 times Smn protein vs DMSO vehicle control; for maximum fold (Fold) increase of Smn protein: 7-point concentration data, fold relative to vehicle control
Outline: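 Smn protein quantified by HTRF with anti-SMN d2/kryptate pair, 665/620 nm ratio blank-corrected, in RIPA lysates of GM03813 fibroblasts after 48 h compound exposure (7 concentrations, 3.16-fold steps, triplicates). Values: concentration producing 1.5× vehicle Smn level, and maximal fold increase.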

[2] = tested on: SMN2 minigene mRNA (SMN2-A minigene) in HEK293H cells; assay: SMN2 minigene mRNA splicing RT-qPCR assay in cultured cells; format: cell-based, human; details: Homo sapiens, HEK293-H; concentration increasing full length SMN2 mRNA 1.5-fold relative to vehicle-treated cells; HEK293H cells with SMN2-A minigene, 24 hours, 7-point concentration data; read-out: EC1.5x for production of full length SMN2 mRNA
Outline: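 EC1.5× = concentration raising full-length SMN2 minigene mRNA 1.5-fold over vehicle, from 7-point curves in duplicate. Stably transfected HEK293H cells exposed 24 h at 37 °C; lysates assayed by multiplex RT-qPCR, minigene FL signal normalized to GAPDH via modified ΔΔCt.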

SMILES	melting point [°C]	EC1.5x for Smn protein expression [1]	maximum fold (Fold) increase of Smn protein [1]	EC (1.5-fold increase) [2] [µM]
COc1ccc(-c2ccc3nc(C4=CCNCC4)cc(=O)n3c2)cc1F [Cpd 294, 7-(3-fluoro-4-methoxyphenyl)-2-(1,2,3,6-tetrahydropyridin-4-yl)-4H-pyrido[1,2-a]pyrimidin-4-one]	188 to 192	* (An EC1.5× for Smn protein expression between >3 μM and ≤10 μM is indicated by one star (*))	*** (a fold increase between >1.35 and ≤1.5 is indicated by three stars (***))	< 0.1
Cc1nc2c(F)cc(-c3cc(=O)n4cc(N5CCN[C@@H](C)C5)ccc4n3)cc2o1 [Cpd 306, 2-(4-fluoro-2-methyl-1,3-benzoxazol-6-yl)-7-[(3S)-3-methylpiperazin-1-yl]-4H-pyrido[1,2-a]pyrimidin-4-one]	207 to 209	**** (an EC1.5x≤0.3 μM is indicated by four stars (****))	***** (a fold increase >1.65 is indicated by five stars (*****))	< 0.1
Cc1nc2ccc(-c3cc(=O)n4cc(N5CCN[C@@H](C)C5)ccc4c3)cc2o1 [Cpd 322, 2-(2-methyl-1,3-benzoxazol-6-yl)-7-[(3S)-3-methylpiperazin-1-yl]-4H-quinolizin-4-one]	115 to 117	*** (an EC1.5× between >0.3 μM and ≤1 μM is indicated by three stars (***))	**** (a fold increase between >1.5 and ≤1.65 is indicated by four stars (****))	< 0.1
Cc1cn2nc(-c3cc(=O)n4cc(C5=CCNCC5)ccc4n3)cc2c(C)n1 [Cpd 342, 2-(4,6-dimethylpyrazolo[1,5-a]pyrazin-2-yl)-7-(1,2,3,6-tetrahydropyridin-4-yl)-4H-pyrido[1,2-a]pyrimidin-4-one]	207 to 210	**** (an EC1.5x≤0.3 μM is indicated by four stars (****))	***** (a fold increase >1.65 is indicated by five stars (*****))	< 0.1
Cc1nc2ccc(-c3cc(=O)n4nc(C5CCNCC5)ccc4n3)cc2s1.O=C(O)C(F)(F)F [Cpd 380, 2-(2-methyl-1,3-benzothiazol-6-yl)-7-(piperidin-4-yl)-4H-pyrimido[1,2-b]pyridazin-4-one trifluoroacetate (1:1)]	230 to 235	*** (an EC1.5× between >0.3 μM and ≤1 μM is indicated by three stars (***))	**** (a fold increase between >1.5 and ≤1.65 is indicated by four stars (****))	0.1 to 0.3
COc1ccc(-c2cc(=O)n3nc(C4=CCNCC4)ccc3n2)cc1OC [Cpd 398, 2-(3,4-dimethoxyphenyl)-7-(1,2,3,6-tetrahydropyridin-4-yl)-4H-pyrimido[1,2-b]pyridazin-4-one]	195 to 200	** (an EC1.5× between >1 μM and ≤3 μM is indicated by two stars (**))	***** (a fold increase >1.65 is indicated by five stars (*****))	0.3 to 1
COc1ccc(-c2cc(=O)n3cc(C4=CCNCC4)ncc3n2)cc1OC [Cpd 402, 2-(3,4-dimethoxyphenyl)-7-(1,2,3,6-tetrahydropyridin-4-yl)-4H-pyrazino[1,2-a]pyrimidin-4-one]	205 to 208	** (an EC1.5× between >1 μM and ≤3 μM is indicated by two stars (**))	**** (a fold increase between >1.5 and ≤1.65 is indicated by four stars (****))	< 0.1
Cn1ncc2cc(-c3cc(=O)n4cc(C5=CCNCC5)ccc4n3)ccc21 [Cpd 443, 2-(1-methyl-1H-indazol-5-yl)-7-(1,2,3,6-tetrahydropyridin-4-yl)-4H-pyrido[1,2-a]pyrimidin-4-one]	200 to 203	**** (an EC1.5x≤0.3 μM is indicated by four stars (****))	***** (a fold increase >1.65 is indicated by five stars (*****))	< 0.1

Second part, led by results:

melting point [°C]	SMILES	EC1.5x for Smn protein expression [1]	maximum fold (Fold) increase of Smn protein [1]	EC (1.5-fold increase) [2] [µM]
178 to 184	CCCNC1CCN(c2cc(C)c3nc(-c4ccc(OC)c(OC)c4)cc(=O)n3c2)CC1 [Cpd 407, 2-(3,4-dimethoxyphenyl)-9-methyl-7-[4-(propylamino)piperidin-1-yl]-4H-pyrido[1,2-a]pyrimidin-4-one]		*** (a fold increase between >1.35 and ≤1.5 is indicated by three stars (***))	< 0.1
198 to 200	Cc1cc2cc(-c3cc(=O)n4cc(N5CCNCC5)ccc4n3)oc2c(C)n1 [Cpd 486, 2-(5,7-dimethylfuro[2,3-c]pyridin-2-yl)-7-(piperazin-1-yl)-4H-pyrido[1,2-a]pyrimidin-4-one]	**** (an EC1.5x≤0.3 μM is indicated by four stars (****))	**** (a fold increase between >1.5 and ≤1.65 is indicated by four stars (****))	< 0.1
268 to 270	Cn1ncc2cc(-c3cc(=O)n4cc(C5CCNCC5)ccc4n3)ccc21 [Cpd 603, 2-(1-methyl-1H-indazol-5-yl)-7-(piperidin-4-yl)-4H-pyrido[1,2-a]pyrimidin-4-one]	*** (an EC1.5× between >0.3 μM and ≤1 μM is indicated by three stars (***))	***** (a fold increase >1.65 is indicated by five stars (*****))	0.1 to 0.3
242 to 244	COc1nc(C)cn2nc(-c3cc(=O)n4cc(N5CCN(C)CC5)ccc4n3)cc12 [Cpd 625, 2-(4-methoxy-6-methylpyrazolo[1,5-a]pyrazin-2-yl)-7-(4-methylpiperazin-1-yl)-4H-pyrido[1,2-a]pyrimidin-4-one]		** (a fold increase between >1.2 and ≤1.35 is indicated by two stars (**))	1 to 3
280 to 283	Cc1cn2nc(-c3cc(=O)n4cc(N5CCN(C)CC5)ccc4n3)cc2c(O)n1 [Cpd 626, 2-(4-hydroxy-6-methylpyrazolo[1,5-a]pyrazin-2-yl)-7-(4-methylpiperazin-1-yl)-4H-pyrido[1,2-a]pyrimidin-4-one]	** (an EC1.5× between >1 μM and ≤3 μM is indicated by two stars (**))	***** (a fold increase >1.65 is indicated by five stars (*****))	0.3 to 1
257 to 259	CCc1nc(C)cn2nc(-c3cc(=O)n4cc(N5CCN(C)[C@H](C)C5)ccc4n3)cc12 [Cpd 629, 7-[(3R)-3,4-dimethylpiperazin-1-yl]-2-(4-ethyl-6-methylpyrazolo[1,5-a]pyrazin-2-yl)-4H-pyrido[1,2-a]pyrimidin-4-one]	**** (an EC1.5x≤0.3 μM is indicated by four stars (****))	***** (a fold increase >1.65 is indicated by five stars (*****))	< 0.1
197 to 199	Cc1cn2nc(-c3cc(=O)n4cc(C5CCN(CCF)CC5)ccc4n3)cc2c(C)n1 [Cpd 662, 2-(4,6-dimethylpyrazolo[1,5-a]pyrazin-2-yl)-7-[1-(2-fluoroethyl)piperidin-4-yl]-4H-pyrido[1,2-a]pyrimidin-4-one]	**** (an EC1.5x≤0.3 μM is indicated by four stars (****))	***** (a fold increase >1.65 is indicated by five stars (*****))	< 0.1

From patent US11753407B2, “Compounds for treating spinal muscular atrophy” (PTC Therapeutics, Inc., priority 2012, dated 2023)
